Toxic doses and inconclusive results are not listed. Cut-off read from the data, not from the text of the source: active = T/C of 150% or more; inactive = T/C below 125%.
System: L1210 leukemia ip in BDF1 mice, survival T/C
Experiment: NCI In Vivo Anticancer Drug Screen. Data for tumor model L1210 Leukemia (intraperitoneal) in B6D2F1 (BDF1) mice
Settings: endpoint: mean survival time, higher = longer survival
Summary of the method: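 Tumor was transplanted into mice, which were then dosed with test compound or vehicle alone. Survival was recorded for each group, and the treated figure was expressed relative to the control figure.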

Measured: T/C

C=CCOc1ccccc1OC
inactive: dose: 50.0 mg/kg/injection, schedule: Q01DX009 (ip), vehicle: saline with Tween-80 96 % of control | dose: 100.0 mg/kg/injection, schedule: Q01DX009 (ip), vehicle: saline with Tween-80 100 % of control | dose: 100.0 mg/kg/injection, schedule: Q04DX003 (ip), vehicle: saline with Tween-80 103 % of control | dose: 200.0 mg/kg/injection, schedule: Q01DX009 (ip), vehicle: saline with Tween-80 95 % of control | dose: 200.0 mg/kg/injection, schedule: Q04DX003 (ip), vehicle: saline with Tween-80 112 % of control

C=CCC(C)/C(C)=C(/C#N)C(=O)OCC (configuration not stated)
inactive: dose: 75.0 mg/kg/injection, schedule: Q01DX001 (ip), vehicle: other 107 % of control | dose: 150.0 mg/kg/injection, schedule: Q01DX001 (ip), vehicle: other 100 % of control
